Data taken from US8791132B2, “Compounds and methods for treatment of hypertension” (Medivation Technologies, Inc., priority 2011, dated 2014).

Key:
[1] = tested on: spontaneously hypertensive rats (SHR); test: Blood pressure in spontaneously hypertensive rat (SHR) model of hypertension; type: in vivo; settings: SC or PO, 4 hour study period (FIGS. 7-10)
Description: Male spontaneously hypertensive rats (SHR), approximately 3 months of age and weighting approximately 250 grams were utilized. Free access to standard lab chow for rats and reverse osmosis (RO) water was granted. All aspects of this work, including housing, experimentation and disposal of animals were performed in general accordance with the Guide for the Care and Use of Laboratory Animals (National Academy Press, Washington, D.C., 1996).
The animals were anaesthetized with sodium pentobarbital (50 mg/kg IP). The left carotid artery when compound dosed orally (PO) or subcutaneously (SC); and both left carotid and femoral artery when compound dosed intravenous (i.v.) were cannulated with a polyethylene catheter (38 cm in length; PE60, Portex, Ltd.) connected with a polyurethane tubing (12 cm in length; PU-40, Cat. #BB520-40, Scientific Commodities, Inc.), which was tunneled under the skin and exited through the nape of the neck. The arterial cannula was connected to a pressure transducer through a swivel system, allowing free roaming during continuous recording of mean arterial pressure and heart rate. The animals were housed individually with food and water freely available during recovery. On the following day, the arterial cannula was connected via a Statham (P 23×L) pressure transducer to a NEC/San-Ei amplifier and data acquisition and analysis system (Power Lab 8/SP) for direct mean arterial pressure and heart rate measurements.
The test compounds, dissolved in sterile saline, were administered subcutaneously (SC) or orally (PO), or by intravenous (i.v.) bolus administration in two minutes or the escalating doses of compound administration in every 30 minutes, with each dose and its strength delivered over 2 minutes as shown in the respective figures; the internal standard phentolamine was given by oral gavage. The control group received vehicle alone. Immediately before (−10 min and −5 min) and at 15 min, 30 min, 1 hr, 1.5 hr, 2 hr, 2.5 hr, 3 hr, 3.5 hr, and 4 hr post-dosing, systolic pressure blood pressure values were recorded.

[2] = tested on: healthy dogs; test: Blood pressure in healthy beagle dogs (telemetry); type: in vivo, dog
Text: Four adult beagle dogs of both sex and weighted around 10 kg were chosen for the acute studies after a preliminary qualitative electrocardiogram/ECG, clinical pathology and physical examination. Upon arrival at the laboratory, the dogs were weighed and acclimated for a period of one week. Lab Diet certified canine diet #5007, PMI Nutrition International Inc was made available ad libitum to all dogs except during fasting periods. The dogs were surgically implanted with a pressure transducer equipped telemetry transmitter under sodium pentobarbitone anesthesia. The transmitter assembly was secured internally, the fluid-filled catheter was placed into an appropriate artery.
In the acute studies, the test compounds 3b and 5b at different doses (dosing sequences provided in Table B7 for compound 3b and Table B8 for compound 5b) was administered by oral gavage, 30 minutes prior to intravenous dexmedetomidine (5 μg/kg) challenge. Dexmedetomidine administration was enabled by prior placement of a peripheral intravenous line. The same four dogs were received all four treatments in the order noted in the table below, with at least a 3-day washout period between treatments.
In another acute study with compound 41a, the test agent was administered a dose of 6 mg/kg by oral gavage to 4 healthy dogs; and the blood pressure monitored for a period of 4 hours.
For the chronic study mode (see Table B9), the test compound 3b at 3 doses was administered by oral gavage once on day 1 and then twice/day on days 2 to 14, and finally once on day 15. The dexmedetomidine was administered on day-4 to check its effectiveness in inducing blood pressure, and once following the morning dose of compound 3b or vehicle on days 2, 7 and 14. Blood pressure and heart rate data were collected 1 h prior & 4 h post-morning dose on days 1, 2, 7, 14 and 15 to allow the appropriate data comparisons. Blood aliquots were saved at 4 h post-morning dose for exposure determination.
In both acute and chronic studies, dogs were weighed before dosing. Cardiovascular evaluations at each dose of test compound were collected with animals gently restrained in a sling. Dogs were placed in the sling at least 1 hour prior to dose administration, and after at least 30 minutes of stable baseline data collection. The dogs were monitored continuously for 3-4 hours subsequent to test compound administration and summarized in 5-minute bins. The systolic blood pressure was collected.

[3] = molecular target: T1, human recombinant adrenergic α1D receptor (Homo sapiens, UniProt P25100); test: Radioligand binding, adrenergic α1D ([3H]Prazosin); settings: compound at 0.1 μM; [3H]Prazosin; repeat assays, each datapoint shown; read-out: Percentage inhibition of ligand binding, Adrenergic α1D
T1 construct: expressed in transfected cells; host or cells: HEK-293
T1 sequence (P25100 1-572): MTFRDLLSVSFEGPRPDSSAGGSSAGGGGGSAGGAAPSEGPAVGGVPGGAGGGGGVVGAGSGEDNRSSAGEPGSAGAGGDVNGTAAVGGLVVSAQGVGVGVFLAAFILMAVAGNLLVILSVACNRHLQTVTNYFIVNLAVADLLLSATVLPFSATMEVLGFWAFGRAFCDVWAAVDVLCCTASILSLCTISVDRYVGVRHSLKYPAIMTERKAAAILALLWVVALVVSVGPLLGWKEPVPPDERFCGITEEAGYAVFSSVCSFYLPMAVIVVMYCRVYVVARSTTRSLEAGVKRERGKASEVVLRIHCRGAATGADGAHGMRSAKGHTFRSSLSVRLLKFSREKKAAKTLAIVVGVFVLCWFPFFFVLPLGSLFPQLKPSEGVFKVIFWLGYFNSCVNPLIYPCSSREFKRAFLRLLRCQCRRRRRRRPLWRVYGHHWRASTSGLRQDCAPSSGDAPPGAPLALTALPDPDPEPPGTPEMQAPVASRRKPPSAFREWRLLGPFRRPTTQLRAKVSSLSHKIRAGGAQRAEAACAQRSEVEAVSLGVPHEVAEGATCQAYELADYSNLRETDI
Description: Compounds were incubated with 0.6 nM [3H]Prazosin for 60 min at 25° C. Non-specific binding was estimated in the presence of 10 μM phentolamine. Receptor proteins were filtered and washed, the filters were then counted to determine [3H]Prazosin specifically bound. […] Biochemical assay results are presented as the percent inhibition of specific binding in Table B1.

inhibition at 0.1 µM [3] [%]	SMILES	systolic blood pressure [1]	heart rate ([2]; 6 mg/kg oral gavage)	systolic blood pressure ([2]; acute studies, oral gavage)	systolic blood pressure ([2]; chronic study, oral, day 1 and 15)
	CN1CCc2c(n(CC(O)c3ccncc3)c3ccc(Cl)cc23)C1 (single isomer, unassigned) [41a]	markedly lowered blood pressure	slight decrease or neutral effect	robust and long lasting reduction in systolic blood pressure	
18	Cc1ccc2c(c1)c1c(n2CC(O)c2ccncc2)CCN(C)C1 (single isomer, unassigned) [3b]	lowered systolic blood pressure		dose-dependently reduced systolic blood pressure	dose dependently reduced systolic blood pressure
1	Cc1ccc2c(c1)c1c(n2CC(C)(O)c2cccnc2)CCN(C)C1 (single isomer, unassigned) [5b, 1-(1,2,3,4-tetrahydro-2,8-dimethylpyrido[4,3-b]indol-5-yl)-2-(pyridin-3-yl)propan-2-ol]			dose-dependently reduced systolic blood pressure	
